Results from patent US10765114B2, “4-amino-6-(pyridyl and 2-substitutedphenyl)-picolinates and 6-amino-2-(pyridyl and 2-substitutedphenyl)-pyrimidine-4-carboxylates and their use as herbicides” (Dow AgroSciences LLC, priority 2013, dated 2020).

system: SEBEX: hemp sesbania, Sesbania exaltata; test: Postemergence Herbicidal Activity in Direct Seeded Rice; format: in vivo; conditions: 35 g ai/ha, postemergence, direct seeded rice
Excerpt: (§1) Seeds or nutlets of the desired test plant species were planted in a soil matrix prepared by mixing a loam soil (43 percent silt, 19 percent clay, and 38 percent sand, with a pH of about 8.1 and an organic matter content of about 1.5 percent) and river sand in an 80 to 20 ratio. The soil matrix was contained in plastic pots with a surface area of 139.7 cm^2. When required to ensure good germination and healthy plants, a fungicide treatment and/or other chemical or physical treatment was applied. The plants were grown for 10-17 days in a greenhouse with an approximate 14-h photoperiod which was maintained at about 29° C. during the day and 26° C. during the night. Nutrients and water were added on a regular basis and supplemental lighting was provided with overhead metal halide 1000-Watt lamps as necessary. The plants were employed for testing when they reached the second or third true leaf stage.
(§2) A weighed amount, determined by the highest rate to be tested, of each test compound was placed in 25 mL glass vials and dissolved in a volume of 97:3 v/v acetone-DMSO to obtain 12× stock solutions. […] The concentrated stock solutions were added to the spray solutions so that the final acetone and DMSO concentrations were 16.2% and 0.5%, respectively. Spray solutions were diluted to the appropriate final concentrations with the addition of 10 mL of an aqueous mixture of 1.5% (v/v) Agri-dex crop oil concentrate. The final spray solutions contained 1.25% (v/v) Agri-dex crop oil concentrate. Compound requirements are based upon a 12 mL application volume at a rate of 187 L/ha. Formulated compounds were applied to the plant material with an overhead Mandel track sprayer equipped with 8002E nozzles calibrated to deliver 187 L/ha over an application area of 0.503 square meters (m^2) at a spray height of 18 inches (43 cm) above average plant canopy height. Control plants were sprayed in the same manner with the solvent blank.
(§3) The treated plants and control plants were placed in a greenhouse as described above and watered by sub-irrigation to prevent wash-off of the test compounds. After 20-22 days, the condition of the test plants, compared with that of the untreated plants, was determined visually and scored on a scale of 0 to 100 percent where 0 corresponds to no injury and 100 corresponds to complete kill and presented as indicated in Table A.
(§4) By applying the well-accepted probit analysis as described by J. Berkson in Journal of the American Statistical Society, 48, 565 (1953) and by D. Finney in “Probit Analysis” Cambridge University Press (1952), herbicidal injury of a specific compound at various rates can be used to calculate GR20, GR50, GR80 and GR90 values, which are defined as growth reduction factors that correspond to the effective dose of herbicide required to provide plant growth reduction (GR) of 20 percent, 50 percent, 80 percent and 90 percent, respectively. Probit analysis was applied to data collected from multiple dose rates of individual compounds utilizing the procedures explained in the following examples. The analysis of those dose rates is captured in the following tables

Compound	Visual Growth Reduction (%) 21 Days After Application, SEBEX
COC(=O)c1nc(-c2ccc(C(F)(F)F)nc2)c(C)c(N)c1Cl [Compound 32]	A (95-100)
Nc1c(Cl)c(C(=O)O)nc(-c2ccc(C(F)(F)F)nc2)c1Cl [Compound 33]	A (95-100)

same assay, conditions: 70 g ai/ha, postemergence, direct seeded rice

Compound	Visual Growth Reduction (%) 21 Days After Application, SEBEX
COC(=O)c1nc(-c2ccc(C(F)(F)F)nc2)c(C)c(N)c1Cl [Compound 32]	A (95-100)
Nc1c(Cl)c(C(=O)O)nc(-c2ccc(C(F)(F)F)nc2)c1Cl [Compound 33]	A (95-100)

same assay, conditions: Growth reduction of 50% of plant growth, probit analysis

Compound	GR50, SEBEX [g ai/ha]
COC(=O)c1nc(-c2ccc(C(F)(F)F)nc2)c(C)c(N)c1Cl [Compound 32]	3
Nc1c(Cl)c(C(=O)O)nc(-c2ccc(C(F)(F)F)nc2)c1Cl [Compound 33]	1

same assay, conditions: Growth reduction of 80% of plant growth, probit analysis

Compound	GR80, SEBEX [g ai/ha]
COC(=O)c1nc(-c2ccc(C(F)(F)F)nc2)c(C)c(N)c1Cl [Compound 32]	9
Nc1c(Cl)c(C(=O)O)nc(-c2ccc(C(F)(F)F)nc2)c1Cl [Compound 33]	1

system: BRAPP: broadleaf signalgrass, Brachiaria platyphylla; test: as above; format: in vivo; conditions: 35 g ai/ha, postemergence, direct seeded rice
Excerpt: as §1, §2, §3, §4

Compound	Visual Growth Reduction (%) 21 Days After Application, BRAPP
COC(=O)c1nc(-c2ccc(C(F)(F)F)nc2)c(C)c(N)c1Cl [Compound 32]	B (85-94)
Nc1c(Cl)c(C(=O)O)nc(-c2ccc(C(F)(F)F)nc2)c1Cl [Compound 33]	A (95-100)

same assay, conditions: 70 g ai/ha, postemergence, direct seeded rice

Compound	Visual Growth Reduction (%) 21 Days After Application, BRAPP
COC(=O)c1nc(-c2ccc(C(F)(F)F)nc2)c(C)c(N)c1Cl [Compound 32]	B (85-94)
Nc1c(Cl)c(C(=O)O)nc(-c2ccc(C(F)(F)F)nc2)c1Cl [Compound 33]	A (95-100)

same assay, conditions: Growth reduction of 50% of plant growth, probit analysis

Compound	GR50, BRAPP [g ai/ha]
COC(=O)c1nc(-c2ccc(C(F)(F)F)nc2)c(C)c(N)c1Cl [Compound 32]	14
Nc1c(Cl)c(C(=O)O)nc(-c2ccc(C(F)(F)F)nc2)c1Cl [Compound 33]	3

same assay, conditions: Growth reduction of 80% of plant growth, probit analysis

Compound	GR80, BRAPP [g ai/ha]
COC(=O)c1nc(-c2ccc(C(F)(F)F)nc2)c(C)c(N)c1Cl [Compound 32]	35
Nc1c(Cl)c(C(=O)O)nc(-c2ccc(C(F)(F)F)nc2)c1Cl [Compound 33]	11

system: ORYSS: Oryza sativa; test: as above; format: in vivo; conditions: 35 g ai/ha, postemergence, direct seeded rice
Excerpt: as §1, §2, §3, §4

Compound	Visual Growth Reduction (%) 21 Days After Application, ORYSS
COC(=O)c1nc(-c2ccc(C(F)(F)F)nc2)c(C)c(N)c1Cl [Compound 32]	G (0-29)
Nc1c(Cl)c(C(=O)O)nc(-c2ccc(C(F)(F)F)nc2)c1Cl [Compound 33]	D (60-74)

same assay, conditions: 70 g ai/ha, postemergence, direct seeded rice

Compound	Visual Growth Reduction (%) 21 Days After Application, ORYSS
COC(=O)c1nc(-c2ccc(C(F)(F)F)nc2)c(C)c(N)c1Cl [Compound 32]	F (30-44)
Nc1c(Cl)c(C(=O)O)nc(-c2ccc(C(F)(F)F)nc2)c1Cl [Compound 33]	C (75-84)

same assay, conditions: Growth reduction of 20% of plant growth, probit analysis

Compound	GR20, ORYSS [g ai/ha]
COC(=O)c1nc(-c2ccc(C(F)(F)F)nc2)c(C)c(N)c1Cl [Compound 32]	36
Nc1c(Cl)c(C(=O)O)nc(-c2ccc(C(F)(F)F)nc2)c1Cl [Compound 33]	8

system: CYPSS: sedge including small-flower flatsedge (Cyperus difformis), yellow nutsedge (Cyperus esculentus), rice flatsedge (Cyperus iria); test: as above; format: in vivo; conditions: 35 g ai/ha, postemergence, direct seeded rice
Excerpt: as §1, §2, §3, §4

Compound	Visual Growth Reduction (%) 21 Days After Application, CYPSS
COC(=O)c1nc(-c2ccc(C(F)(F)F)nc2)c(C)c(N)c1Cl [Compound 32]	A (95-100)
Nc1c(Cl)c(C(=O)O)nc(-c2ccc(C(F)(F)F)nc2)c1Cl [Compound 33]	A (95-100)

same assay, conditions: 70 g ai/ha, postemergence, direct seeded rice

Compound	Visual Growth Reduction (%) 21 Days After Application, CYPSS
COC(=O)c1nc(-c2ccc(C(F)(F)F)nc2)c(C)c(N)c1Cl [Compound 32]	A (95-100)
Nc1c(Cl)c(C(=O)O)nc(-c2ccc(C(F)(F)F)nc2)c1Cl [Compound 33]	A (95-100)

same assay, conditions: Growth reduction of 50% of plant growth, probit analysis

Compound	GR50, CYPSS [g ai/ha]
COC(=O)c1nc(-c2ccc(C(F)(F)F)nc2)c(C)c(N)c1Cl [Compound 32]	1
Nc1c(Cl)c(C(=O)O)nc(-c2ccc(C(F)(F)F)nc2)c1Cl [Compound 33]	4

same assay, conditions: Growth reduction of 80% of plant growth, probit analysis

Compound	GR80, CYPSS [g ai/ha]
COC(=O)c1nc(-c2ccc(C(F)(F)F)nc2)c(C)c(N)c1Cl [Compound 32]	2
Nc1c(Cl)c(C(=O)O)nc(-c2ccc(C(F)(F)F)nc2)c1Cl [Compound 33]	7

system: SCPJU: Japanese bulrush, Schoenoplectus juncoides; test: as above; format: in vivo; conditions: 35 g ai/ha, postemergence, direct seeded rice
Excerpt: as §1, §2, §3, §4

Compound	Visual Growth Reduction (%) 21 Days After Application, SCPJU
COC(=O)c1nc(-c2ccc(C(F)(F)F)nc2)c(C)c(N)c1Cl [Compound 32]	A (95-100)
Nc1c(Cl)c(C(=O)O)nc(-c2ccc(C(F)(F)F)nc2)c1Cl [Compound 33]	A (95-100)

same assay, conditions: 70 g ai/ha, postemergence, direct seeded rice

Compound	Visual Growth Reduction (%) 21 Days After Application, SCPJU
COC(=O)c1nc(-c2ccc(C(F)(F)F)nc2)c(C)c(N)c1Cl [Compound 32]	A (95-100)
Nc1c(Cl)c(C(=O)O)nc(-c2ccc(C(F)(F)F)nc2)c1Cl [Compound 33]	A (95-100)

same assay, conditions: Growth reduction of 50% of plant growth, probit analysis

Compound	GR50, SCPJU [g ai/ha]
COC(=O)c1nc(-c2ccc(C(F)(F)F)nc2)c(C)c(N)c1Cl [Compound 32]	<17.5
Nc1c(Cl)c(C(=O)O)nc(-c2ccc(C(F)(F)F)nc2)c1Cl [Compound 33]	<17.5

same assay, conditions: Growth reduction of 80% of plant growth, probit analysis

Compound	GR80, SCPJU [g ai/ha]
COC(=O)c1nc(-c2ccc(C(F)(F)F)nc2)c(C)c(N)c1Cl [Compound 32]	<17.5
Nc1c(Cl)c(C(=O)O)nc(-c2ccc(C(F)(F)F)nc2)c1Cl [Compound 33]	<17.5

system: ECHSS: including barnyardgrass, (Echinochloa crus-galli), junglerice, (Echinochloa colonum); test: as above; format: in vivo; conditions: 35 g ai/ha, postemergence, direct seeded rice
Excerpt: as §1, §2, §3, §4

Compound	Visual Growth Reduction (%) 21 Days After Application, ECHSS
COC(=O)c1nc(-c2ccc(C(F)(F)F)nc2)c(C)c(N)c1Cl [Compound 32]	B (85-94)
Nc1c(Cl)c(C(=O)O)nc(-c2ccc(C(F)(F)F)nc2)c1Cl [Compound 33]	C (75-84)

same assay, conditions: 70 g ai/ha, postemergence, direct seeded rice

Compound	Visual Growth Reduction (%) 21 Days After Application, ECHSS
COC(=O)c1nc(-c2ccc(C(F)(F)F)nc2)c(C)c(N)c1Cl [Compound 32]	A (95-100)
Nc1c(Cl)c(C(=O)O)nc(-c2ccc(C(F)(F)F)nc2)c1Cl [Compound 33]	A (95-100)

same assay, conditions: Growth reduction of 50% of plant growth, probit analysis

Compound	GR50, ECHSS [g ai/ha]
COC(=O)c1nc(-c2ccc(C(F)(F)F)nc2)c(C)c(N)c1Cl [Compound 32]	21
Nc1c(Cl)c(C(=O)O)nc(-c2ccc(C(F)(F)F)nc2)c1Cl [Compound 33]	1

same assay, conditions: Growth reduction of 80% of plant growth, probit analysis

Compound	GR80, ECHSS [g ai/ha]
COC(=O)c1nc(-c2ccc(C(F)(F)F)nc2)c(C)c(N)c1Cl [Compound 32]	35
Nc1c(Cl)c(C(=O)O)nc(-c2ccc(C(F)(F)F)nc2)c1Cl [Compound 33]	1

system: LEFSS: sprangletop including Chinese sprangletop (Leptochloa chinensis), green sprangletop (Leptochloa dubia); test: as above; format: in vivo; conditions: 35 g ai/ha, postemergence, direct seeded rice
Excerpt: as §1, §2, §3, §4

Compound	Visual Growth Reduction (%) 21 Days After Application, LEFSS
COC(=O)c1nc(-c2ccc(C(F)(F)F)nc2)c(C)c(N)c1Cl [Compound 32]	F (30-44)
Nc1c(Cl)c(C(=O)O)nc(-c2ccc(C(F)(F)F)nc2)c1Cl [Compound 33]	E (45-59)

same assay, conditions: 70 g ai/ha, postemergence, direct seeded rice

Compound	Visual Growth Reduction (%) 21 Days After Application, LEFSS
COC(=O)c1nc(-c2ccc(C(F)(F)F)nc2)c(C)c(N)c1Cl [Compound 32]	E (45-59)
Nc1c(Cl)c(C(=O)O)nc(-c2ccc(C(F)(F)F)nc2)c1Cl [Compound 33]	C (75-84)

same assay, conditions: Growth reduction of 50% of plant growth, probit analysis

Compound	GR50, LEFSS [g ai/ha]
COC(=O)c1nc(-c2ccc(C(F)(F)F)nc2)c(C)c(N)c1Cl [Compound 32]	59
Nc1c(Cl)c(C(=O)O)nc(-c2ccc(C(F)(F)F)nc2)c1Cl [Compound 33]	30

same assay, conditions: Growth reduction of 80% of plant growth, probit analysis

Compound	GR80, LEFSS [g ai/ha]
COC(=O)c1nc(-c2ccc(C(F)(F)F)nc2)c(C)c(N)c1Cl [Compound 32]	133
Nc1c(Cl)c(C(=O)O)nc(-c2ccc(C(F)(F)F)nc2)c1Cl [Compound 33]	77
